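Interpolation was linear, between the two tested concentrations surrounding the appropriate level; five concentrations were tested over 48 hours in 96-well plates. The concentration for 50% growth inhibition is given as GI50. TGI: total growth inhibition.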
Legend:
Assay in all cases: inhibition of tumour cell growth, NCI panel, 48 h
[1] = tested on: CCRF-CEM leukemia
[2] = tested on: UO-31 renal
[3] = tested on: A498 renal
[4] = tested on: IGROV1 ovarian
[5] = tested on: SNB-75 CNS
[6] = tested on: UACC-257 melanoma
[7] = tested on: SNB-19 CNS
[8] = tested on: M14 melanoma
[9] = tested on: SK-OV-3 ovarian
[10] = tested on: T-47D breast
[11] = tested on: COLO 205 colon
[12] = tested on: CAKI-1 renal
[13] = tested on: SW-620 colon
[14] = tested on: SK-MEL-28 melanoma
[15] = tested on: DU-145 prostate
[16] = tested on: SK-MEL-2 melanoma
[17] = tested on: NCI-H460 lung
[18] = tested on: LOX IMVI melanoma
[19] = tested on: KM12 colon
[20] = tested on: A549 NSCLC
[21] = tested on: ACHN renal
[22] = tested on: NCI-H23 lung
[23] = tested on: U251 CNS
[24] = tested on: HCC-2998 colon
[25] = tested on: OVCAR-3 ovarian
[26] = tested on: MDA-MB-231 breast
[27] = tested on: SR leukemia
[28] = tested on: OVCAR-5 ovarian
[29] = tested on: BT-549 breast
[30] = tested on: SK-MEL-5 melanoma
[31] = tested on: TK-10 renal
[32] = tested on: UACC-62 melanoma
[33] = tested on: SF-295 CNS
[34] = tested on: K-562 leukemia
[35] = tested on: EKVX NSCLC
[36] = tested on: RXF 393 renal
[37] = tested on: NCI-H226 lung
[38] = tested on: MOLT-4 leukemia
[39] = tested on: HCT-116 colon
[40] = tested on: MDA-MB-435
[41] = tested on: MALME-3M melanoma
[42] = tested on: PC-3 prostate
[43] = tested on: OVCAR-8 ovarian
[44] = tested on: HOP-62 NSCLC
[45] = tested on: 786-0 renal
[46] = tested on: HCT-15 colon
[47] = tested on: HS 578T breast
[48] = tested on: RPMI-8226 leukemia
[49] = tested on: HL-60(TB) leukemia
[50] = tested on: SF-268 CNS
[51] = tested on: SF-539 CNS
[52] = tested on: NCI-H522 lung
[53] = tested on: HOP-92 NSCLC
[54] = tested on: HT29 colon
[55] = tested on: MCF7 breast
[56] = tested on: SN12C renal
[57] = tested on: OVCAR-4 ovarian

Structure (SMILES): C[n+]1cc2c3c(ccc2c2ccc4cc5c(cc4c21)OCO5)OCO3
- GI50 [1]: 0.217 µM
- TGI [1]: 1.15 µM
- GI50 [2]: 0.359 µM
- TGI [2]: 1.7 µM
- GI50 [3]: 1.54 µM
- TGI [3]: 3.12 µM
- GI50 [4]: 1.18 µM
- TGI [4]: 2.48 µM
- GI50 [5]: 1.01 µM
- TGI [5]: 2.17 µM
- GI50 [6]: 1.18 µM
- TGI [6]: 2.43 µM
- GI50 [7]: 1.29 µM
- TGI [7]: 2.72 µM
- GI50 [8]: 0.412 µM
- TGI [8]: 1.6 µM
- GI50 [9]: 1.21 µM
- TGI [9]: 2.45 µM
- GI50 [10]: 1.42 µM
- TGI [10]: 3.13 µM
- GI50 [11]: 0.255 µM
- TGI [11]: 0.778 µM
- GI50 [12]: 0.735 µM
- TGI [12]: 2.13 µM
- GI50 [13]: 0.174 µM
- TGI [13]: 0.36 µM
- GI50 [14]: 1.22 µM
- TGI [14]: 2.48 µM
- GI50 [15]: 0.726 µM
- TGI [15]: 1.96 µM
- GI50 [16]: 1.33 µM
- TGI [16]: 2.79 µM
- GI50 [17]: 1.29 µM
- TGI [17]: 3.7 µM
- GI50 [18]: 0.171 µM
- TGI [18]: 0.411 µM
- GI50 [19]: 0.455 µM
- TGI [19]: 1.64 µM
- GI50 [20]: 0.322 µM
- TGI [20]: 1.15 µM
- GI50 [21]: 0.788 µM
- TGI [21]: 2.09 µM
- GI50 [22]: 0.72 µM
- TGI [22]: 2.18 µM
- GI50 [23]: 0.331 µM
- TGI [23]: 1.28 µM
- GI50 [24]: 1.47 µM
- TGI [24]: 2.92 µM
- GI50 [25]: 0.278 µM
- TGI [25]: 0.758 µM
- GI50 [26]: 0.63 µM
- TGI [26]: 1.98 µM
- GI50 [27]: 0.258 µM
- GI50 [28]: 1.16 µM
- TGI [28]: 2.42 µM
- GI50 [29]: 0.784 µM
- TGI [29]: 2.08 µM
- GI50 [30]: 1.16 µM
- TGI [30]: 2.39 µM
- GI50 [31]: 1.33 µM
- TGI [31]: 2.65 µM
- GI50 [32]: 0.744 µM
- TGI [32]: 2.08 µM
- GI50 [33]: 1.22 µM
- TGI [33]: 2.53 µM
- GI50 [34]: 0.47 µM
- TGI [34]: 3.06 µM
- GI50 [35]: 1.33 µM
- TGI [35]: 2.65 µM
- GI50 [36]: 0.351 µM
- TGI [36]: 1.32 µM
- GI50 [37]: 1.54 µM
- TGI [37]: 2.98 µM
- GI50 [38]: 0.3 µM
- TGI [38]: 0.697 µM
- GI50 [39]: 0.227 µM
- TGI [39]: 0.593 µM
- GI50 [40]: 0.317 µM
- TGI [40]: 1.11 µM
- GI50 [41]: 0.564 µM
- TGI [41]: 1.83 µM
- GI50 [42]: 0.668 µM
- TGI [42]: 2.08 µM
- GI50 [43]: 0.326 µM
- TGI [43]: 1.4 µM
- GI50 [44]: 0.349 µM
- TGI [44]: 1.44 µM
- GI50 [45]: 1.02 µM
- TGI [45]: 2.26 µM
- GI50 [46]: 0.631 µM
- TGI [46]: 2.29 µM
- GI50 [47]: 2.11 µM
- TGI [47]: > 24.6 µM
- GI50 [48]: 0.365 µM
- TGI [48]: 1.88 µM
- GI50 [49]: 0.445 µM
- TGI [49]: 2.7 µM
- GI50 [50]: 0.489 µM
- TGI [50]: 1.7 µM
- GI50 [51]: 1.42 µM
- TGI [51]: 3.02 µM
- GI50 [52]: 0.3 µM
- TGI [52]: 1.41 µM
- GI50 [53]: 0.584 µM
- TGI [53]: 2.05 µM
- GI50 [54]: 0.507 µM
- TGI [54]: 1.87 µM

Structure (SMILES): Cc1cccc(NC(=O)c2sc3nc4c(cc3c2N)CCCC4)c1C
- GI50 [55]: 0.339 µM
- TGI [55]: > 100 µM
- GI50 [1]: 0.375 µM
- TGI [1]: > 100 µM
- TGI [2]: > 100 µM
- GI50 [3]: 0.232 µM
- TGI [3]: 0.981 µM
- GI50 [4]: 0.547 µM
- TGI [4]: > 100 µM
- GI50 [5]: 0.173 µM
- GI50 [6]: > 100 µM
- TGI [6]: > 100 µM
- GI50 [7]: 0.508 µM
- TGI [7]: > 100 µM
- GI50 [8]: 0.355 µM
- TGI [8]: > 100 µM
- GI50 [9]: 0.581 µM
- TGI [9]: > 100 µM
- GI50 [10]: 0.505 µM
- TGI [10]: > 100 µM
- GI50 [11]: 0.344 µM
- TGI [11]: 27.6 µM
- GI50 [12]: 0.491 µM
- TGI [12]: > 100 µM
- GI50 [13]: 0.369 µM
- TGI [13]: > 100 µM
- GI50 [14]: > 48.4 µM
- TGI [14]: > 100 µM
- GI50 [15]: 0.454 µM
- TGI [15]: > 100 µM
- GI50 [16]: 0.515 µM
- TGI [16]: > 100 µM
- GI50 [17]: 0.369 µM
- TGI [17]: > 100 µM
- GI50 [18]: 0.598 µM
- TGI [18]: > 100 µM
- GI50 [19]: 0.342 µM
- TGI [19]: > 100 µM
- GI50 [20]: 0.612 µM
- TGI [20]: > 100 µM
- GI50 [21]: 0.68 µM
- TGI [21]: > 100 µM
- GI50 [22]: 0.519 µM
- TGI [22]: > 100 µM
- GI50 [23]: 0.416 µM
- TGI [23]: > 100 µM
- GI50 [24]: 1.59 µM
- TGI [24]: > 100 µM
- GI50 [25]: 0.285 µM
- TGI [25]: 0.871 µM
- GI50 [26]: 1.6 µM
- TGI [26]: > 100 µM
- GI50 [27]: 0.276 µM
- TGI [27]: > 100 µM
- GI50 [28]: 1.79 µM
- TGI [28]: > 100 µM
- GI50 [56]: 0.61 µM
- TGI [56]: > 100 µM
- GI50 [29]: 2.51 µM
- TGI [29]: > 100 µM
- GI50 [30]: 0.399 µM
- TGI [30]: > 100 µM
- GI50 [31]: 23.3 µM
- TGI [31]: > 100 µM
- GI50 [32]: 0.533 µM
- TGI [32]: > 100 µM
- GI50 [33]: 0.516 µM
- TGI [33]: > 100 µM
- GI50 [34]: 0.238 µM
- TGI [34]: > 100 µM
- GI50 [35]: 0.708 µM
- TGI [35]: > 100 µM
- GI50 [36]: 0.233 µM
- TGI [36]: 0.733 µM
- GI50 [37]: 1.44 µM
- TGI [37]: > 25.1 µM
- GI50 [38]: 0.455 µM
- TGI [38]: > 100 µM
- GI50 [39]: 0.435 µM
- TGI [39]: > 100 µM
- GI50 [40]: 0.115 µM
- TGI [40]: 0.391 µM
- GI50 [41]: 0.614 µM
- TGI [41]: > 100 µM
- GI50 [42]: 0.468 µM
- TGI [42]: > 100 µM
- GI50 [43]: 0.754 µM
- TGI [43]: > 100 µM
- GI50 [44]: 0.537 µM
- TGI [44]: > 100 µM
- GI50 [45]: 0.532 µM
- TGI [45]: > 100 µM
- GI50 [46]: 0.363 µM
- TGI [46]: > 100 µM
- GI50 [47]: 0.351 µM
- TGI [47]: > 100 µM
- GI50 [48]: 0.354 µM
- TGI [48]: > 100 µM
- GI50 [49]: 0.266 µM
- TGI [49]: 0.941 µM
- GI50 [50]: 1.03 µM
- TGI [50]: > 100 µM
- GI50 [51]: 0.272 µM
- TGI [51]: 1.2 µM
- GI50 [57]: 1.48 µM
- TGI [57]: > 100 µM
- GI50 [52]: 0.269 µM
- TGI [52]: > 100 µM
- GI50 [53]: 0.7 µM
- TGI [53]: > 100 µM
- GI50 [54]: 0.341 µM
- TGI [54]: > 100 µM
